Results on four test systems are retold here after the supplement of paper PMC10331698.

Common to all, as to assay: level (log10 ratio to DMSO vehicle control); higher = higher biomarker level / cell amount than vehicle control
Compound in experiment [1]: OCCCC(F)(F)C(F)(F)C(F)(F)C(F)(F)C(F)(F)C(F)(F)C(F)(F)F [7:3 Fluorotelomer alcohol]
Particulars: 6700 nM; in DMSO. As for the experimental part:
(§1)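 BioMAP Diversity Plus panel of 12 human primary cell co-culture systems (3C, 4H, LPS, SAg, BT, BF4T, BE3C, CASM3C, HDF3CGF, KF3CT, MyoF, Mphg). Compounds were added 1 h before stimulation and left for 24 h (MyoF 48 h; BT 72 h for soluble read-outs or 6 d for IgG). Biomarkers were read by ELISA, cytotoxicity by SRB, PBMC viability and proliferation by Alamar Blue. Each well value was divided by the mean of 8 DMSO control wells on the same plate and log10 transformed; duplicate blinded samples were tested at 4 concentrations.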

Compound in a further experiment: O=C(O)C(F)(F)C(F)(F)C(F)(F)F [Perfluorobutanoic acid]
The conditions noted are these: in DMSO. As for the experimental part: as §1

Compound in the next experiment: NC(=O)C(F)(F)C(F)(F)F [Pentafluoropropionamide]
Particulars: in DMSO. On the procedure:
as §1

Compound in experiment [2]: FC(F)C(F)(F)COCC1CO1 [((2,2,3,3-Tetrafluoropropoxy)methyl)oxirane]
The conditions noted are these: in DMSO. As for the experimental part:
as §1

Compound in the next experiment: O=C(O)C(F)(F)C(F)(F)F [Perfluoropropanoic acid]
The conditions noted are these: in DMSO. As for the experimental part:
as §1

Compound in experiment [3]: O=C(O)C(F)(F)C(F)(F)C(F)(F)OC(F)(C(F)(F)F)C(F)(F)F [Perfluoro-4-isopropoxybutanoic acid]
Particulars: in DMSO. On the procedure:
as §1

Compound in a further experiment: O=C(O)C(F)(F)C(F)(F)C(F)(F)C(F)(F)C(F)(F)C(F)(F)F [Perfluoroheptanoic acid]
The conditions noted are these: in DMSO. As for the experimental part:
as §1

± gives the standard deviation of the averaged measurements.

In the case of BE3C:CXCL8/IL-8, the “level (log10)” value in experiment [1] is 0.006 ± 0.0028; with Perfluorobutanoic acid (6700 nM), 0.0155 ± 0.022; with Perfluorobutanoic acid (20000 nM), 0.01 ± 0.014; with Perfluorobutanoic acid (60000 nM), 0.0155 ± 0.005; in the experiment with Pentafluoropropionamide (6700 nM), 0.016 ± 0.028; in the experiment with Pentafluoropropionamide (20000 nM), 0.0125 ± 0.074. Moreover, the “level (log10)” value is 0.0445 ± 0.044 with Pentafluoropropionamide (60000 nM); 0.0015 ± 0.00071 in experiment [2] (6700 nM); -0.005 ± 0.025 in experiment [2] (20000 nM); -0.009 ± 0.021 in experiment [2] (60000 nM); -0.0355 ± 0.083 with Perfluoropropanoic acid (6700 nM); 0.001 ± 0.083 with Perfluoropropanoic acid (20000 nM). For the same test system, the “level (log10)” value with Perfluoropropanoic acid (60000 nM) is 0.0605 ± 0.13; in experiment [3] (6700 nM) it was 0.0175 ± 0.025; in experiment [3] (20000 nM), 0.0185 ± 0.019; in experiment [3] (60000 nM), 0.015 ± 0.038; with Perfluoroheptanoic acid (6700 nM) it was 0.033 ± 0.041; with Perfluoroheptanoic acid (20000 nM), 0.008 ± 0.042. In addition, the “level (log10)” value in the experiment with Perfluoroheptanoic acid (60000 nM) is 0.0205 ± 0.1.
Turning to BE3C:CXCL9/MIG, the “level (log10)” value in experiment [1] was -0.0015 ± 0.0021; with Perfluorobutanoic acid (6700 nM), 0.002 ± 0.0071; in the experiment with Perfluorobutanoic acid (20000 nM), -0.004 ± 0.013; with Perfluorobutanoic acid (60000 nM) it was -0.0005 ± 0.00071; with Pentafluoropropionamide (6700 nM), 0.004 ± 0.0028; in the experiment with Pentafluoropropionamide (20000 nM), -0.0015 ± 0.011. The “level (log10)” value with Pentafluoropropionamide (60000 nM) is 0.0075 ± 0.0035; in experiment [2] (6700 nM), 0 ± 0.0042; in experiment [2] (20000 nM), -0.0115 ± 0.0092; in experiment [2] (60000 nM), 0.003 ± 0.02; with Perfluoropropanoic acid (6700 nM), -0.0005 ± 0.016; in the experiment with Perfluoropropanoic acid (20000 nM) it was 0.0035 ± 0.0078. The “level (log10)” value in the experiment with Perfluoropropanoic acid (60000 nM) came to 0.0165 ± 0.023; in experiment [3] (6700 nM), 0.001 ± 0.0028; in experiment [3] (20000 nM), 0.012 ± 0.0071; in experiment [3] (60000 nM) it was 0.014 ± 0.017; in the experiment with Perfluoroheptanoic acid (6700 nM), 0 ± 0.0014; in the experiment with Perfluoroheptanoic acid (20000 nM) it was 0.0065 ± 0.011. Also, in the experiment with Perfluoroheptanoic acid (60000 nM), the “level (log10)” value was 0.012 ± 0.017.
As for BE3C:CXCL10/IP-10, the “level (log10)” value in experiment [1] was 0.011 ± 0.024; with Perfluorobutanoic acid (6700 nM), 0.0065 ± 0.00071; with Perfluorobutanoic acid (20000 nM), -0.001 ± 0.011; in the experiment with Perfluorobutanoic acid (60000 nM) it was 0.0085 ± 0.0078; with Pentafluoropropionamide (6700 nM), -0.008 ± 0.0085; with Pentafluoropropionamide (20000 nM) it was 0 ± 0.0028. Besides, the “level (log10)” value in the experiment with Pentafluoropropionamide (60000 nM) was -0.0015 ± 0.0064; in experiment [2] (6700 nM), -0.007 ± 0.011; in experiment [2] (20000 nM) it was -0.0125 ± 0.016; in experiment [2] (60000 nM), 0.002 ± 0.0099; with Perfluoropropanoic acid (6700 nM), -0.0125 ± 0.019; with Perfluoropropanoic acid (20000 nM) it was 0.0035 ± 0.022. In addition, the “level (log10)” value in the experiment with Perfluoropropanoic acid (60000 nM) was 0.014 ± 0.025; in experiment [3] (6700 nM), 0.003 ± 0.0014; in experiment [3] (20000 nM), 0.0135 ± 0.00071; in experiment [3] (60000 nM), 0.0155 ± 0.015; in the experiment with Perfluoroheptanoic acid (6700 nM), 0.0055 ± 0.022; in the experiment with Perfluoroheptanoic acid (20000 nM), 0.0065 ± 0.0092. Further, the “level (log10)” value with Perfluoroheptanoic acid (60000 nM) amounted to 0.0045 ± 0.011.
On to BE3C:CXCL11/I-TAC, for which the “level (log10)” value in experiment [1] is 0.022 ± 0.017; in the experiment with Perfluorobutanoic acid (6700 nM), 0.007 ± 0.0099; with Perfluorobutanoic acid (20000 nM), -0.003 ± 0.0014; in the experiment with Perfluorobutanoic acid (60000 nM) it was -0.0085 ± 0.015; in the experiment with Pentafluoropropionamide (6700 nM), -0.0065 ± 0.0092; in the experiment with Pentafluoropropionamide (20000 nM), -0.0055 ± 0.018. The “level (log10)” value with Pentafluoropropionamide (60000 nM) was -0.006 ± 0.0071; in experiment [2] (6700 nM), 0.0005 ± 0.054; in experiment [2] (20000 nM), -0.008 ± 0.033; in experiment [2] (60000 nM), 0.0225 ± 0.037; in the experiment with Perfluoropropanoic acid (6700 nM) it was 0.007 ± 0.0071; with Perfluoropropanoic acid (20000 nM) it was 0.013 ± 0.014. The “level (log10)” value was 0.029 ± 0.033 with Perfluoropropanoic acid (60000 nM); -0.0095 ± 0.005 in experiment [3] (6700 nM); 0.008 ± 0.0014 in experiment [3] (20000 nM); 0.018 ± 0.0099 in experiment [3] (60000 nM); 0.0065 ± 0.015 in the experiment with Perfluoroheptanoic acid (6700 nM); -0.011 ± 0.0042 with Perfluoroheptanoic acid (20000 nM). Besides, in the experiment with Perfluoroheptanoic acid (60000 nM), the “level (log10)” value was -0.003 ± 0.0042.
